US20240067651A1 (Biohaven Therapeutics Ltd., priority 2019, published 2024)

Columns and labels:
[1] = Stability in Simulated Intestinal Fluid (SIF); format: in vitro ADME; parameters: key: % parent compound remaining relative to 0-minute sample
Summary of the method: (§1)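 LC-MS/MS read-out of intact compound (2 μg/mL final) over 60 minutes at 37° C; gastric medium pH 1.2 with pepsin, intestinal medium pH 6.8 with pancreatin. Half-life from ln(% remaining) against time.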

Plasma Stability = format: in vitro ADME, human
Summary of the method: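 Parent compound quantified by LC-MS/MS after acetonitrile precipitation, reported as percent of control remaining (triplicate). Incubation: 1 hour, 37° C, fresh human plasma, compound at 1 μM.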

[2] = Stability in Simulated Gastric Fluid (SGF); format: in vitro ADME; parameters: key: % parent compound remaining relative to 0-minute sample
Summary of the method: as §1

[3] = Caco-2 Permeability Assay; format: in vitro ADME, human; conditions: human
Summary of the method: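 Bidirectional transport at 37 °C for 90 min, 10 μM donor concentration, with or without Pgp inhibitor, across 21-day Caco-2 monolayers with TEER >600 […] in HEPES-buffered HBSS, pH 7.4. LC-MS/MS of donor and receiver samples gives Papp, B→A/A→B efflux ratio and mass recovery.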

[4] = simulated intestinal fluid, remaining at 1 h
[5] = simulated gastric fluid, remaining at 1 h
[6] = Caco-2, pH 7.4, Caco-2 monolayer
[7] = % remaining at 1 h in human plasma, the 15th table
[8] = Caco-2, pH 7.4, Caco-2 monolayer, the 15th table
[9] = % @ 1 h (remaining) in simulated intestinal fluid
[10] = % @ 1 h (remaining) in human plasma
[11] = % @ 1 h (remaining) in simulated gastric fluid
[12] = % remaining at 1 h, SIF with pancreatin pH 6.8, 2 μg/mL, 37° C.
[13] = % remaining at 1 h, human plasma, 1 μM, 37° C.
[14] = % remaining at 1 h, SGF with pepsin pH 1.2, 2 μg/mL, 37° C.
[15] = Caco-2, pH 7.4, donor 10 μM, 90 minutes, 37° C., direction not given
[16] = % remaining at 1 h in simulated intestinal fluid
[17] = % remaining at 1 h in human plasma
[18] = % remaining at 1 h in simulated gastric fluid
[19] = bare number, no % and no time given
[20] = bare number, unit or time not given, the 15th table Examples 204-207

Structure (SMILES): CC(C)OCCn1c(=S)[nH]c(=O)c2c1ccn2COC(=O)CCCOC(=O)[C@H](NC(=O)OC(C)(C)C)C(C)C [Example 355, 4-oxo-4-({4-oxo-1-[2-(propan-2-yloxy)ethyl]-2-sulfanylidene-1H,2H,3H,4H,5H-pyrrolo[3,2-d]pyrimidin-5-yl}methoxy)butyl (2R)-2-{[(tert-butoxy)carbonyl]amino}-3-methylbutanoate]
- SIF [1, 4]: 100% remaining
- human Plasma stability (Plasma Stability; human plasma, remaining at 1 h): 43% remaining
- SGF [2, 5]: 99% remaining
- Papp at 90 min, 10 µM [3, 6]: 2.16 ×10⁻⁶ cm/s

Structure (SMILES): CC(C)CNC(=O)OCSc1nc(=O)c2c(ccn2COC(=O)NCC(C)C)n1CCOC(C)C [Example 188]
- SIF ([1]; % remaining at 1 h in simulated intestinal fluid, the 15th table): 97% @ 1 h
- human Plasma stability (Plasma Stability; [7]): 99% @ 1 h
- SGF ([2]; % remaining at 1 h in simulated gastric fluid, the 15th table): 98% @ 1 h
- Papp at 90 min, 10 µM [3, 8]: 11.7 ×10⁻⁶ cm/s

Structure (SMILES): C=CCCN(C)C(=O)OCSc1nc(=O)c2[nH]ccc2n1CCOC(C)C.O=C(O)C(F)(F)F [Example 179]
- SIF [1, 9]: 91% @ 1 h
- human Plasma stability (Plasma Stability; [10]): 99% @ 1 h
- SGF [2, 11]: 95% @ 1 h
- Papp at 90 min, 10 µM [3, 6]: 14.5 ×10⁻⁶ cm/s

Structure (SMILES): CC(C)OCCn1c(=S)[nH]c(=O)c2c1ccn2COC(=O)[C@@H](NC(=O)OC(C)(C)C)C(C)C [Example 294, {4-oxo-1-[2-(propan-2-yloxy)ethyl]-2-sulfanylidene-1H,2H,3H,4H,5H-pyrrolo[3,2-d]pyrimidin-5-yl}methyl (2S)-2-{[(tert-butoxy)carbonyl]amino}-3-methylbutanoate]
- SIF ([1]; % remaining @ 1 h): 3% @ 1 h
- human Plasma stability (Plasma Stability; % remaining @ 1 h): 98% @ 1 h
- SGF ([2]; % remaining @ 1 h): 98% @ 1 h
- Papp at 90 min, 10 µM ([3]; Caco-2, pH 7.4): 26.8 ×10⁻⁶ cm/s

Structure (SMILES): CC(C)OCCn1c(=S)[nH]c(=O)c2c1ccn2C(C)OC(=O)N(C)CC(=O)OC(C)(C)C (stereo not drawn) [Example 113, tert-butyl 2-{methyl [(1-{4-oxo-1-[2-(propan-2-yloxy)ethyl]-2-sulfanylidene-1H, 2H,3H,4H,5H-pyrrolo[3,2-d]pyrimidin-5-yl}ethoxy)carbonyl]amino}acetate]
- SIF [1, 12]: 96%
- human Plasma stability (Plasma Stability; [13]): 99%
- SGF [2, 14]: 44%
- Papp at 90 min, 10 µM [3, 15]: 7.86 ×10⁻⁶ cm/s

Structure (SMILES): CC(C)OCCn1c(=S)[nH]c(=O)c2c1ccn2COC(=O)CCCCNC(=O)[C@H](Cc1ccc(O)cc1)NC(=O)OC(C)(C)C.O=C(O)C(F)(F)F [Example 45]
- SIF [1, 16]: 89% remaining
- human Plasma stability (Plasma Stability; [17]): 66% remaining
- SGF [2, 18]: 100%
- Papp at 90 min, 10 µM ([3]; pH 7.4, Caco-2 monolayer): 2.28 ×10⁻⁶ cm/s

Structure (SMILES): CC(C)OCCn1c(=S)[nH]c(=O)c2c1ccn2COC(=O)CCNC(=O)[C@H](Cc1ccccc1)NC(=O)OCC1c2ccccc2-c2ccccc21.O=C(O)C(F)(F)F [Example 23]
- SIF [1, 16]: 84% remaining
- human Plasma stability (Plasma Stability; [17]): 92% remaining
- SGF [2, 18]: 93% remaining
- Papp at 90 min, 10 µM [3, 6]: 1.94 ×10⁻⁶ cm/s

Structure (SMILES): CC(C)OCCn1c(=S)[nH]c(=O)c2c1ccn2COC(=O)CCNC(=O)[C@@H](N)C(C)C.O=C(O)C(F)(F)F [Example 14]
- SIF [1, 16]: 84% remaining
- human Plasma stability (Plasma Stability; [17]): 55% remaining
- SGF [2, 18]: 95% remaining
- Papp at 90 min, 10 µM [3, 6]: < 0.203 ×10⁻⁶ cm/s

Structure (SMILES): CC(C)OCCn1c(SCOC(=O)N(C)CC(F)(F)F)nc(=O)c2c1ccn2COC(=O)N(C)CC(F)(F)F [Example 95, {2-[{{[methyl(2,2,2-trifluoroethyl)carbamoyl]oxy}methyl)sulfanyl]-4-oxo-1-[2-(propan-2-yloxy)ethyl]-1H, 4H,5H-pyrrolo[3,2-d]pyrimidin-5-yl}methyl N-methyl-N-(2,2,2-trifluoroethyl)carbamate]
- SIF [1, 19]: 95
- human Plasma stability (Plasma Stability; [13]): 99% remaining
- SGF [2, 19]: 100
- Papp at 90 min, 10 µM [3, 15]: 18.8 ×10⁻⁶ cm/s

Structure (SMILES): CC(C)OCCn1c(=S)[nH]c(=O)c2c1ccn2COC(=O)c1ccccc1.O=C(O)C(F)(F)F [Example 157]
- SIF [1, 9]: 20% @ 1 h
- human Plasma stability (Plasma Stability; [10]): 0% @ 1 h
- SGF [2, 11]: 96% @ 1 h
- Papp at 90 min, 10 µM [3, 6]: 7.3 ×10⁻⁶ cm/s

Structure (SMILES): CC(C)OCCn1c(SCOC(=O)N(C)C(C)C)nc(=O)c2c1ccn2COC(=O)N(C)C(C)C.O=C(O)C(F)(F)F [Example 171]
- SIF [1, 9]: 89% @ 1 h
- human Plasma stability (Plasma Stability; [10]): 97% @ 1 h
- SGF [2, 11]: 100% @ 1 h
- Papp at 90 min, 10 µM [3, 6]: 21.7 ×10⁻⁶ cm/s

Structure (SMILES): CC(C)OCCn1c(=S)n(COCC[Si](C)(C)C)c(=O)c2c1ccn2COCC[Si](C)(C)C [Example 71, 1-[2-(propan-2-yloxy)ethyl]-2-sulfanylidene-3,5-bis({[2-(trimethylsilyl)ethoxy]methyl})-1H,2H,3H,4H,5H-pyrrolo[3,2-d]pyrimidin-4-one]
- SIF [1, 12]: 88%
- human Plasma stability (Plasma Stability; [13]): 58%
- SGF [2, 14]: 98%
- Papp at 90 min, 10 µM [3, 15]: 0.178 ×10⁻⁶ cm/s

Structure (SMILES): CC(C)OCCn1c(=S)n(COC(=O)C2CCN(C(=O)OC(C)(C)C)CC2)c(=O)c2c1ccn2COC(=O)CCC(=O)OC(C)(C)C [Example 132]
- SIF [1, 16]: 71% remaining
- human Plasma stability (Plasma Stability; [17]): 11% remaining
- SGF [2, 18]: 9% remaining
- Papp at 90 min, 10 µM [3, 6]: 4.29 ×10⁻⁶ cm/s

Structure (SMILES): CC(C)OCCn1c(=S)[nH]c(=O)c2c1ccn2COC(=O)CCNC(=O)CN(C)C(=O)OC(C)(C)C.O=C(O)C(F)(F)F [Example 54]
- SIF [1, 16]: 87% remaining
- human Plasma stability (Plasma Stability; [17]): 74% remaining
- SGF [2, 18]: 93% remaining
- Papp at 90 min, 10 µM [3, 6]: 3.14 ×10⁻⁶ cm/s

Structure (SMILES): CC(C)OCCn1c(=S)[nH]c(=O)c2c1ccn2C(=O)NC(C)(C)C [Example 229, N-tert-butyl-4-oxo-1-[2-(propan-2-yloxy)ethyl]-2-sulfanylidene-1H,2H,3H,4H,5H-pyrrolo[3,2-d]pyrimidine-5-carboxamide]
- SIF [1, 12]: 76%
- human Plasma stability (Plasma Stability; [13]): 96%
- SGF [2, 14]: 98%
- Papp at 90 min, 10 µM [3, 15]: 26.4 ×10⁻⁶ cm/s

Structure (SMILES): CC(C)OCCn1c(=S)[nH]c(=O)c2c1ccn2COC(=O)CCCCOC(=O)CN.O=C(O)C(F)(F)F [Example 330, trifluoroacetic acid {4-oxo-1-[2-(propan-2-yloxy)ethyl]-2-sulfanylidene-1H,2H,3H,4H,5H-pyrrolo[3,2-d]pyrimidin-5-yl}methyl 5-[(2-aminoacetyl)oxy]pentanoate]
- SIF ([1]; % remaining @ 1 h): 7% @ 1 h
- human Plasma stability (Plasma Stability; % remaining @ 1 h): 2% @ 1 h
- SGF ([2]; % remaining @ 1 h): 84% @ 1 h
- Papp at 90 min, 10 µM ([3]; Caco-2, pH 7.4): 0.641 ×10⁻⁶ cm/s

Structure (SMILES): CC(C)OCCn1c(=S)[nH]c(=O)c2c1ccn2COC(=O)[C@@H]1CCC(=O)N1C(=O)OC(C)(C)C [Example 85, 1-tert-Butyl 2-{4-oxo-1-[2-(propan-2-yloxy)ethyl]-2-sulfanylidene-1H,2H,3H,4H,5H-pyrrolo[3,2-d]pyrimidin-5-yl}methyl (2S)-5-oxopyrrolidine-1,2-dicarboxylate]
- SIF [1, 12]: 90%
- human Plasma stability (Plasma Stability; [13]): 30%
- SGF [2, 14]: 78%
- Papp at 90 min, 10 µM [3, 15]: 6.54 ×10⁻⁶ cm/s

Structure (SMILES): CSCC[C@H](N)C(=O)OCCCCC(=O)OCn1ccc2c1c(=O)[nH]c(=S)n2CCOC(C)C.O=C(O)C(F)(F)F [Example 353, trifluoroacetic acid {4-oxo-1-[2-(propan-2-yloxy)ethyl]-2-sulfanylidene-1H,2H,3H,4H,5H-pyrrolo[3,2-d]pyrimidin-5-yl}methyl 5-{[(2S)-2-amino-4-(methylsulfanyl)butanoyl]oxy}pentanoate]
- SIF [1, 4]: 66% remaining
- human Plasma stability (Plasma Stability; human plasma, remaining at 1 h): 3% remaining
- SGF [2, 5]: 33% remaining
- Papp at 90 min, 10 µM [3, 6]: 0.549 ×10⁻⁶ cm/s

Structure (SMILES): CC(C)OCCn1c(=S)[nH]c(=O)c2c1ccn2COC(=O)OCCOCCNC(=O)OC(C)(C)C [Example 120]
- SIF [1, 16]: 64% remaining
- human Plasma stability (Plasma Stability; [17]): 30% remaining
- SGF [2, 18]: 83% remaining
- Papp at 90 min, 10 µM [3, 6]: 14.9 ×10⁻⁶ cm/s

Structure (SMILES): CCCCOC(=O)OCSc1nc(=O)c2[nH]ccc2n1CCOC(C)C [Example 204]
- SIF [1, 20]: 2
- human Plasma stability (Plasma Stability; [7]): 1% remaining
- SGF [2, 20]: 85
- Papp at 90 min, 10 µM [3, 8]: 6.35 ×10⁻⁶ cm/s

Structure (SMILES): C=CCN(C)C(=O)OCSc1nc(=O)c2c(ccn2COC(=O)N(C)CC=C)n1CCOC(C)C.O=C(O)C(F)(F)F [Example 178]
- SIF [1, 9]: 75% @ 1 h
- human Plasma stability (Plasma Stability; [10]): 86% @ 1 h
- SGF [2, 11]: 99% @ 1 h
- Papp at 90 min, 10 µM [3, 6]: 19.4 ×10⁻⁶ cm/s

Structure (SMILES): CSCC[C@H](NC(=O)OC(C)(C)C)C(=O)NCCCCC(=O)OCn1ccc2c1c(=O)[nH]c(=S)n2CCOC(C)C [Example 28]
- SIF [1, 16]: 75% remaining
- human Plasma stability (Plasma Stability; [17]): 62% remaining
- SGF [2, 18]: 99% remaining
- Papp at 90 min, 10 µM [3, 6]: 6.7 ×10⁻⁶ cm/s

Structure (SMILES): CC(C)OCCn1c(=S)n(COC(=O)c2ccccc2)c(=O)c2c1ccn2COC(=O)c1ccccc1 [Example 117, {3-[(benzoyloxy)methyl]-4-oxo-1-[2-(propan-2-yloxy)ethyl]-2-sulfanylidene-1H,2H,3H,4H,5H-pyrrolo[3,2-d]pyrimidin-5-yl}methylbenzoate]
- SIF [1, 12]: 79%
- human Plasma stability (Plasma Stability; [13]): 20%
- SGF [2, 14]: 100%
- Papp at 90 min, 10 µM [3, 15]: 5.76 ×10⁻⁶ cm/s

Structure (SMILES): Cc1ccccc1N(C)C(=O)OCSc1nc(=O)c2c(ccn2COC(=O)N(C)c2ccccc2C)n1CCOC(C)C [Example 243]
- SIF ([1]; simulated intestinal fluid, at 1 h): 99% remaining
- human Plasma stability (Plasma Stability; human plasma, at 1 h): 99% remaining
- SGF ([2]; simulated gastric fluid, at 1 h): 88% remaining
- Papp at 90 min, 10 µM [3, 6]: 31.4 ×10⁻⁶ cm/s
